Columns and labels:
Type in all cases: biochemical
DENV2 NS2B-NS3pro = DENV2 NS2B-NS3pro (Dengue virus type 2, UniProt P14340); assay: Steady-state kinetics of 7n against DENV2 NS2B-NS3pro; conditions: 0.025 μM protease
DENV2 NS2B-NS3 protease = DENV2 NS2B-NS3 protease (Dengue virus type 2, UniProt P14340); assay: In vitro DENV2 NS2B-NS3pro inhibition assay; conditions: compound 25 μM, protease 25 nM, absence of detergent (Figure 2)
WNV NS2B-NS3pro = WNV NS2B-NS3pro (West Nile virus, UniProt Q9Q6P4); assay: In vitro WNV NS2B-NS3pro inhibition assay; conditions: compound 25 μM, protease 28 nM, 0.1% CHAPS (Figure 3)
Sequence of WNV NS2B-NS3pro (Q9Q6P4 1506-1683): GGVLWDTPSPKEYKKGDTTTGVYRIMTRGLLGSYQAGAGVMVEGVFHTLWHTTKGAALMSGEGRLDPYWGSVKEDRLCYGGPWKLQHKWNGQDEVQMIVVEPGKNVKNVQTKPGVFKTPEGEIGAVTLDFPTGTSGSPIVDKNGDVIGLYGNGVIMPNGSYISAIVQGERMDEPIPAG
Sequence of WNV NS2B-NS3pro (Q9Q6P4 1428-1467): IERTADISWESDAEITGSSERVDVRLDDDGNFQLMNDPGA

Sequence of DENV2 NS2B-NS3pro (P14340 1476-1653): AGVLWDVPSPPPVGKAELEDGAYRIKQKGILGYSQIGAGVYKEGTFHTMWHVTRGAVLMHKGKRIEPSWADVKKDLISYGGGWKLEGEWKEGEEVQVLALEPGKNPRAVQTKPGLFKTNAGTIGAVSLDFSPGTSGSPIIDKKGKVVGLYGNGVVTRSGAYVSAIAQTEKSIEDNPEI
Sequence of DENV2 NS2B-NS3pro (P14340 1398-1437): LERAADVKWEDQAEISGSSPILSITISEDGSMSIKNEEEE
Sequence of DENV2 NS2B-NS3 protease (P14340 1476-1653): as the sequence (P14340 1476-1653) above
Sequence of DENV2 NS2B-NS3 protease (P14340 1398-1437): as the sequence (P14340 1398-1437) above

Molecule | Vmax (DENV2 NS2B-NS3pro; inhibitor [7n] 1 μM) | Vmax (DENV2 NS2B-NS3pro; inhibitor [7n] 2 μM) | Vmax (DENV2 NS2B-NS3pro; inhibitor [7n] 5 μM) | inhibitory activity toward DENV NS2B-NS3pro (in words) (DENV2 NS2B-NS3 protease) | inhibitory activity toward WNV NS2B-NS3pro (in words) (WNV NS2B-NS3pro)
O=C(Cn1sc2ccccc2c1=O)Nc1cccc(OCc2cn(CC(=O)Nc3ccccc3Oc3ccccc3)nn2)c1 [Compound 7n, N-(3-((1-(2-Oxo-2-(2-phenoxyphenylamino)ethyl)-1H-1,2,3-triazol-4-yl)methoxy)phenyl)-2-(3-oxobenzo[d]isothiazol-2(3H)-yl)acetamide] | 0.1006 ± 0.0029 µM/min | 0.0978 ± 0.0020 µM/min | 0.0994 ± 0.0010 µM/min | – | –
Methyl 4-((4-((3-(2-(3-oxobenzo[d]isothiazol-2(3H)-yl)acetamido)phenoxy)methyl)-1H-1,2,3-triazol-1-yl)methyl)benzoate [Compound 7e] | – | – | – | noteworthy inhibitory activity | –
O=C(Cn1sc2ccccc2c1=O)NCc1cn(CC(=O)Nc2ccc(Oc3ccccc3)cc2)nn1 [Compound 4l, N-((1-(2-Oxo-2-(4-phenoxyphenylamino)ethyl)-1H-1,2,3-triazol-4-yl)methyl)-2-(3-oxobenzo[d]isothiazol-2(3H)-yl)acetamide] | – | – | – | noteworthy inhibitory activity | weak inhibitory activity

Source: PMC3279297 (Bioorganic & medicinal chemistry, 2011)
